Measurements: patent US5712161A, “Method for culturing animal cells in collagen drops on a support” (Nitta Gelatin Inc., priority 1993, dated 1998)
Read-outs that look alike come from different tables or passages of the source. Blank lines part the entries; values can stand above or below the molecule they belong to.

Legend:
[1] = system: human breast cancer cells (surgical sample); assay: Anticancer agent sensitivity, globular collagen gel-embedded culture, Alamar Blue (AB) absorbance; conditions: 24 h agent contact, 7-14 days culture; for AlamarBlue absorbance: 570 nm, reference 600 nm; for Effect/control (AlamarBlue absorbance): ratio to control = 1.00
Procedure: (§1) The capsule, fat, etc. were removed from the tissue containing the breast cancer using scissors and forceps under aseptic conditions, and then sliced with a razor.
(§2) The live tumor cells as obtained by the above-mentioned preliminary culture and collection steps were embedded into a globular collagen gel and cultured.
(§3) The embedded culture was carried out as follows: 1 volume of 10-fold concentrated Ham's F12 culture solution (sodium bicarbonate-free) and 1 volume of a reconstituting buffer solution (50 mM NaOH solution containing 260 mM sodium bicarbonate and 200 mM-HEPES) were added to 8 volumes of Cellmatrix Type I-A (0.3% acid-soluble Type-I collagen solution: product of Nitta Gelatin Inc.); the breast cancer cells and the like as obtained in the above-mentioned preliminary culture and collection steps were added and well mixed into the resultant mixture; the final concentration was adjusted to 5×10^4 cells/ml; and the resultant mixture was kept in ice.
(§4) A 0.5-ml portion of the culture solution containing an anticancer agent was superposed on the globular collagen gel in which the cancer cells were embedded and which was obtained in the above-mentioned embedding step, and the cancer cells were allowed to be in contacted with the anticancer agent by keeping them in a 5% carbon dioxide incubator at 37° C. for 24 hours. The following six anticancer agents were used: MMC (mitomycin C), CDDP (cisplatin), VDS (vindesine), VP-16, 5-FU (5fluorouracil) and ADM (adriamycin).
(§5) Then, the culture solution containing the anticancer agent was removed by suction, 0.5 ml of a culture solution free from an anticancer agent was instead added, the resultant mixture was shaken in a 5% carbon dioxide incubator, thus washing the globular collagen gel. This procedure was repeated at least every 10 minutes for a total of 3 times, whereby the anticancer agent was removed from the globular collagen gel.
(§6) After the above-mentioned agent contact step, 0.5 ml of a culture solution was added, and the culture was effected at 37° C. in a 5% carbon dioxide incubator for 7-14 days. The culture solution was exchanged every 1-2 days.
(§7) The viability of the cells in the sample as obtained by the culture was measured.
(§8) For the measurement, an AB coloring agent was used to cause a color reaction by the reductive activity of the cells.
(§9) The AB coloring agent was added in an amount of 1/50-1/10 relative to the culture solution, and the reaction was conducted for 6 hours in a carbon dioxide incubator.
(§10) After the reaction, the culture solution was separated off, and the absorbance of the culture solution was measured using a spectrophotometer. The measurement of the absorbance was performed at 570 nm with a reference wavelength of 600 nm.

[2] = system: human breast cancer cells (surgical sample); assay: Anticancer agent sensitivity, FDA stain, fluorescence intensity on image; conditions: 24 h agent contact; for FDA image fluorescence units: fluorescence intensity on image; for Effect/control (FDA image fluorescence): ratio to control = 1.00
Procedure: as §3
(§11) Next, this collagen mixture solution was placed onto a 24-well multiplate at 30 μl/well using a micropipette and gelated to prepare globular collagen gels (for details see Example 1G).
as §4, §5
(§12) After the above-mentioned agent contact step, 0.5 ml of a culture solution was added, and the culture was effected at 37° C. in a 5% carbon dioxide incubator for 7-14 days. The culture solution was exchanged every 1-2 days. The proliferation culture solution as used was a culture solution containing a DF culture solution+10% FBS+5μg/ml insulin (product of Sigma Chemical Co.)+10 ng/ml EGF (EGF: epidermal growth factor, product of Becton Dickinson Labware)+20 ng/ml hydrocortisone (product of Sigma Chemical Co.) (see Example 1H).
(§13) The culture solution was exchanged with a culture solution, to which an FDA-staining agent (FDA concentration: 2-10 μg/ml) which reacts due to esterase activity in live cells had been added, and was shaken for one hour in a refrigerator (10° C.), thus reacting the FDA with the cells.
(§14) The fluorescently colored cells were quantified by image analysis. The image for the image analysis was created using, an inverted fluorescent microscope, a sample holder cooling apparatus (in-house product), an excitatory light irradiation control apparatus, a sample holder driving apparatus and a high-sensitivity cooled CCD camera. The volume was measured on the basis of this image using an image analyzer according to a conventional method. The intensity of the excitatory light was 1×10^3 lux.sec on the sample holder.
(§15) In addition to the conventional known volume measurement by image analysis, the viability of the cells was also measured by quantifying the fluorescence intensity on the image.

[3] = system: human breast cancer cells (surgical sample); assay: Anticancer agent sensitivity, Neutral Red stain, volume by image analysis; conditions: 24 h agent contact; for Neutral Red volume: image analysis of fixed, dried gel; for Effect/control (Neutral Red volume): ratio to control = 1.00
Procedure: (§16) Using a surgical sample as obtained from a human breast cancer patient as the starting material, it was treated according to the order as shown in the flow sheet.
as §3, §11, §4, §5, §12
(§17) The culture solution for the washing was a DME culture solution.
(§18) The culture solution was exchanged with a culture solution to which an NR-staining agent had been added (NR concentration: 25-50 μg/ml), and shaking was effected for 2 hours in a carbon dioxide incubator, thus incorporating the NR into the cells.
(§19) After the stain, the culture solution containing the NR was exchanged with PBS (Phosphate Buffered Saline), and the sample was allowed to stand stationary in a room for 10 minutes, thus removing the NR remaining outside of the cells.
(§20) Next, the PBS was exchanged with neutral 10% formalin, and the sample was allowed to stand stationary in a room for 40 minutes, thus fixing the cells and the NR as incorporated into the cells.
(§21) The globular collagen gel to which the cells had been fixed was immersed in distilled water for 10 minutes, thus removing the salts. When the globular collagen gel which had been immersed in the distilled water was air-dried at room temperature, whereby a flat dried product was formed.
(§22) At this time, the cultured cells were fixed in the dried collagen gel while containing the NR.
(§23) The volume of the fixed cells was measured using an image analyzer in the same manner as mentioned above.

[4] = system: human breast cancer cells (surgical sample); assay: Anticancer agent sensitivity, FDA spectrophotofluorimetry of extracted dye; conditions: 24 h agent contact; for FDA spectrophotofluorimetry fluorescence units: excitation 490 nm, detection 520 nm; for Effect/control (FDA spectrophotofluorimetry): ratio to control = 1.00
Procedure: as §3, §11, §4, §5, §12
(§24) The culture container was then transferred to a cooled dark box. The culture solution was exchanged with a culture solution, to which an FDA-staining agent (FDA concentration: 2-10 μg/ml) which reacts due to esterase activity in live cells had been added, and was shaken for one hour in a refrigerator (10° C.), thus reacting the FDA with the cells.
(§25) The cultured cell sample as subjected to the fluorescent stain was washed for one hour with a fresh cooled culture solution, thus removing the extracellular fluorescent reagent. The culture solution as used for the washing was a DME culture solution. This solution was further exchanged with a culture solution of 37° C., shaking was performed for one hour in an incubator at 37° C., and the FDA which had reacted in the cells was extracted into the solution. The culture solution was separated off and measured using a fluorospectrophotometer, with an excitatory wavelength of 490 nm and a detection wavelength of 520 nm.

[5] = system: human breast cancer cells (surgical sample); assay: Anticancer agent sensitivity, FDA stain, volume by image analysis; conditions: 24 h agent contact; for FDA volume: image analysis; for Effect/control (FDA volume): ratio to control = 1.00
Procedure: as §16, §3, §4, §5, §6
(§26) The culture solution for the washing was free from sodium bicarbonate and cooled to 4° C. before use.
as §24, §14

[6] = system: human breast cancer cells (surgical sample); assay: Anticancer agent sensitivity, globular collagen gel-embedded culture, Alamar Blue fluorescence; conditions: 24 h agent contact; for AlamarBlue fluorescence intensity: excitation 560 nm, detection 590 nm; for Effect/control (AlamarBlue fluorescence): ratio to control = 1.00
Procedure: as §16, §3
(§27) A 0.5-ml portion of the culture solution containing an anticancer agent was superposed on the globular collagen gel in which the cancer cells were embedded and which was obtained in the above-mentioned embedding step, and the cancer cells were allowed to be in contacted with the anticancer agent by keeping them in a 5% carbon dioxide incubator at 37° C. for 24 hours.
as §5, §6, §8, §9
(§28) The same culture solution was also measured using a fluorospectrophotometer, with an excitatory wavelength of 560 nm and a detection wavelength of 590 nm.

[7] = system: human breast cancer cells (surgical sample); conditions: primary breast cancer cells, 24 h
Procedure: as §16, §3, §4, §5, §6, §26, §24, §14

[8] = system: human breast cancer cells (surgical sample); conditions: primary breast cancer cells, 24 h; remark: listed apart in the source
Procedure: as §3, §11, §4, §5, §12, §13, §14, §15

[9] = system: human breast cancer cells (surgical sample); conditions: primary breast cancer cells, 24 h; remark: listed apart in the source
Procedure: as §16, §3, §27, §5, §6, §8, §9, §28

[10] = system: human breast cancer cells (surgical sample); conditions: primary breast cancer cells, 24 h; remark: listed apart in the source
Procedure: as §1, §2, §3, §4, §5, §6, §7, §8, §9, §10

[11] = system: human breast cancer cells (surgical sample); conditions: primary breast cancer cells, 24 h; remark: listed apart in the source
Procedure: as §3, §11, §4, §5, §12, §24, §25

[12] = system: human breast cancer cells (surgical sample); conditions: primary breast cancer cells, 24 h; remark: listed apart in the source
Procedure: as §16, §3, §11, §4, §5, §12, §17, §18, §19, §20, §21, §22, §23

[13] = system: breast cancer cells (surgical sample from a human cancer patient); assay: Anticancer agent sensitivity, NR extraction method, absorbance; assay type: cell-based; conditions: for Effect/control (Neutral Red absorbance): control = 1.00
Procedure: A test was conducted in the same way as in Example 1, but the image analysis of live cells as stained with the NR was not carried out, and the NR was instead extracted from the live cells, thus measuring the absorbance. A surgical sample (breast cancer) as obtained from a human cancer patient was used as the starting material, and the test was carried out according to the same procedures and methods as in Example 1, except for the procedures of the formalin-fixation, the drying and the image analysis in the pigment stain analysis step. The NR as incorporated into live cells was extracted by dissolving the collagen gel with collagenase in the culture container and then adding an NR extractant, and the absorbance of the resultant extract was measured.

[14] = system: breast cancer cells (surgical sample from a human cancer patient); assay: Anticancer agent sensitivity, MTT assay method, formazane absorbance; assay type: cell-based; conditions: for Effect/control (formazane absorbance): control = 1.00
Procedure: A test was conducted in the same way as in Example 1, but an MTT reagent was substituted for the AB coloring agent in the colorimetric analysis step. A surgical sample (breast cancer) as obtained from a human cancer patient was used as the starting material, and the test was carried out according to the same procedures and methods as in Example 1, except for the procedures subsequent to the colorimetric analysis step. The formazane as deposited in live cells was extracted by dissolving the collagen gel with collagenase in the culture container and then adding a formazane extractant, and the absorbance of the resultant extract was measured, when the deposited fine crystal of formazane was held in the collagen gel, such that results were obtained with good accuracy.

[15] = system: fibroblasts in human lung cancer and human breast cancer samples; assay: Fibroblast proliferation in preliminary culture, microscopic observation; assay type: cell-based; conditions: 10 μg/ml dextran sulfate in serum culture solution, 7 days
Procedure: Thus, an investigation was made with regard to a serum-free culture solution (DF culture solution+5 μg/ml insulin+10 ng/ml EGF+8 ng/ml sodium selenite+10 μg/ml transferrin+5 mg/ml BSA) (BSA: bovine serum albumin) and a serum culture solution containing dextran sulfate (DF culture solution+10% FBS+insulin+EGF+hydrocortisone 10 μg/ml dextran sulfate).
The experimental materials used were the 14 cases of human lung cancer and 12 cases of human breast cancer which had adhered to the bottom of the culture dishes in Example 1A above as controls, and the above-mentioned culture solutions (the serum-free culture solution and the dextran sulfate-containing serum culture solution) were used to culture cells for 7 days.

[16] = system: rabbit-oriented vascular endothelial cells; assay: Proliferation shape of vascular endothelial cells around globular collagen gel containing TGF-β; assay type: cell-based
Source text: The procedure of Example 23 was repealed, but TGF-β (a transformation growth factor) was substituted for the cells of the group A, and rabbit-oriented vascular endothelial cells for the cells of the group B, and the following modifications were made. […] In FIG. 7, the transformation growth factor 70 is contained in the globular collagen gel 20a. A collagen gel 80a in which the rabbit-oriented vascular endothelial cells 50d were embedded was placed in the layered form into the inside of the multiplate 10, such that the globular collagen gel 20a was covered with the collagen gel 80a. The test was carried out in the same way as in Example 22 except for the components as contained in each collagen gel and for the placement of the gels. In addition, the collagen gel 80a was evaluated by microscopy.
As a result, different proliferation shapes of the vascular endothelial cells were observed depending on the distance from the surface of the globular collagen gel 20a.

[17] = 5-FU concentration 0.1 (Cmax = 1)
[18] = 5-FU concentration 0.2 (Cmax = 1)
[19] = 5-FU concentration 0.4 (Cmax = 1)
[20] = 5-FU concentration 0.6 (Cmax = 1)
[21] = 5-FU concentration 0.8 (Cmax = 1)
[22] = 5-FU concentration 1.0 (Cmax = 1)

Molecule: [NH2][Pt]([NH2])([Cl])[Cl] [CDDP, cisplatin]
AlamarBlue absorbance [1]: 0.40
Effect/control (AlamarBlue absorbance) [1]: 0.42
FDA image fluorescence units [2]: 3.43 10^1
Effect/control (FDA image fluorescence) [2]: 0.45
Neutral Red volume [3]: 6.25 10^7 μm^3
Effect/control (Neutral Red volume) [3]: 0.37
FDA spectrophotofluorimetry fluorescence units [4]: 3.50 10^1
Effect/control (FDA spectrophotofluorimetry) [4]: 0.47
FDA volume [5]: 5.68 10^7 μm^3
Effect/control (FDA volume) [5]: 0.37
AlamarBlue fluorescence intensity [6]: 2.66 10^2
Effect/control (AlamarBlue fluorescence) [6]: 0.38

Molecule: COc1cccc2c1C(=O)c1c(O)c3c(c(O)c1C2=O)C[C@@](O)(C(=O)CO)C[C@@H]3O[C@H]1C[C@H](N)[C@H](O)[C@H](C)O1 [ADM, adriamycin]
AlamarBlue absorbance [1]: 0.65
Effect/control (AlamarBlue absorbance) [1]: 0.68
FDA image fluorescence units [2]: 5.35 10^1
Effect/control (FDA image fluorescence) [2]: 0.70
Neutral Red volume [3]: 12.26 10^7 μm^3
Effect/control (Neutral Red volume) [3]: 0.73
FDA spectrophotofluorimetry fluorescence units [4]: 5.33 10^1
Effect/control (FDA spectrophotofluorimetry) [4]: 0.72
FDA volume [5]: 10.93 10^7 μm^3
Effect/control (FDA volume) [5]: 0.72
AlamarBlue fluorescence intensity [6]: 4.81 10^2
Effect/control (AlamarBlue fluorescence) [6]: 0.68

Effect/control (FDA volume) [7]: 0.61
Effect/control (FDA image fluorescence) [8]: 0.62
Effect/control (AlamarBlue fluorescence) [9]: 0.72
Effect/control (AlamarBlue absorbance) [10]: 0.73
Effect/control (FDA spectrophotofluorimetry) [11]: 0.61
Effect/control (Neutral Red volume) [12]: 0.60
Molecule: CC[C@]1(O)C[C@@H]2CN(CCc3c([nH]c4ccccc34)[C@@](C(=O)OC)(c3cc4c(cc3OC)N(C)[C@H]3[C@@](O)(C(N)=O)[C@H](O)[C@]5(CC)C=CCN6CC[C@]43[C@@H]65)C2)C1 [VDS, vindesine]
AlamarBlue absorbance [1]: 0.69
FDA image fluorescence units [2]: 4.74 10^1
Neutral Red volume [3]: 10.10 10^7 μm^3
FDA spectrophotofluorimetry fluorescence units [4]: 4.52 10^1
FDA volume [5]: 9.25 10^7 μm^3
AlamarBlue fluorescence intensity [6]: 5.13 10^2

Molecule: CO[C@@]12[C@H](COC(N)=O)C3=C(C(=O)C(C)=C(N)C3=O)N1C[C@@H]1N[C@@H]12 [MMC, mitomycin C]
AlamarBlue absorbance [1]: 0.40
FDA image fluorescence units [2]: 3.26 10^1
Effect/control (FDA volume) [7]: 0.33
Neutral Red volume [3]: 5.19 10^7 μm^3
FDA spectrophotofluorimetry fluorescence units [4]: 3.37 10^1
Effect/control (FDA image fluorescence) [8]: 0.42
Effect/control (AlamarBlue fluorescence) [9]: 0.46
Effect/control (AlamarBlue absorbance) [10]: 0.42
FDA volume [5]: 5.07 10^7 μm^3
AlamarBlue fluorescence intensity [6]: 3.24 10^2
Effect/control (FDA spectrophotofluorimetry) [11]: 0.46
Effect/control (Neutral Red volume) [12]: 0.31

Molecule: COc1cc(C2c3cc4c(cc3C(OC3OC5COC(C)OC5C(O)C3O)C3COC(=O)C23)OCO4)cc(OC)c1O (stereo not shown) [VP-16]
AlamarBlue absorbance [1]: 0,87
Effect/control (AlamarBlue absorbance) [1]: 0.91
FDA image fluorescence units [2]: 7.23 10^1
Effect/control (FDA image fluorescence) [2]: 0.94
Neutral Red volume [3]: 15.54 10^7 μm^3
Effect/control (Neutral Red volume) [3]: 0.92
FDA spectrophotofluorimetry fluorescence units [4]: 6.90 10^1
Effect/control (FDA spectrophotofluorimetry) [4]: 0.93
Effect/control (FDA volume) [5]: 0.93
AlamarBlue fluorescence intensity [6]: 6.64 10^2
Effect/control (AlamarBlue fluorescence) [6]: 0.94

Molecule: O=c1[nH]cc(F)c(=O)[nH]1 [5-FU, 5fluorouracil]
AlamarBlue absorbance [1]: 0.69
FDA image fluorescence units [2]: 4.77 10^1
Effect/control (FDA volume) [7]: 0.65
Neutral Red absorbance [13, 17]: 0.307
Effect/control (Neutral Red absorbance) [13, 17]: 0.88
Neutral Red absorbance [13, 18]: 0.206
Effect/control (Neutral Red absorbance) [13, 18]: 0.59
Neutral Red absorbance [13, 19]: 0.123
Effect/control (Neutral Red absorbance) [13, 19]: 0.35
Neutral Red absorbance [13, 20]: 0.100
Effect/control (Neutral Red absorbance) [13, 20]: 0.29
Neutral Red absorbance [13, 21]: 0.079
Effect/control (Neutral Red absorbance) [13, 21]: 0.23
Neutral Red absorbance [13, 22]: 0.072
Effect/control (Neutral Red absorbance) [13, 22]: 0.21
Formazane absorbance [14, 17]: 1.036
Effect/control (formazane absorbance) [14, 17]: 0.88
Formazane absorbance [14, 18]: 0.774
Effect/control (formazane absorbance) [14, 18]: 0.66
Formazane absorbance [14, 19]: 0.599
Effect/control (formazane absorbance) [14, 19]: 0.51
Formazane absorbance [14, 20]: 0.515
Effect/control (formazane absorbance) [14, 20]: 0.44
Formazane absorbance [14, 21]: 0.450
Effect/control (formazane absorbance) [14, 21]: 0.38
Formazane absorbance [14, 22]: 0.429
Effect/control (formazane absorbance) [14, 22]: 0.37
Neutral Red volume [3]: 10.76 10^7 μm^3
FDA spectrophotofluorimetry fluorescence units [4]: 4.68 10^1
Effect/control (FDA image fluorescence) [8]: 0.62
Effect/control (AlamarBlue fluorescence) [9]: 0.71
Effect/control (AlamarBlue absorbance) [10]: 0.73
FDA volume [5]: 9.89 10^7 μm^3
AlamarBlue fluorescence intensity [6]: 5.07 10^2
Effect/control (FDA spectrophotofluorimetry) [11]: 0.63
Effect/control (Neutral Red volume) [12]: 0.64

Molecule: dextran sulfate
proliferation of the fibroblasts [15]: partially suppressed

Molecule: TGF-β
Proliferation state of vascular endothelial cells ([16]; 0 mm from surface of gel 20a): lump
Proliferation state of vascular endothelial cells ([16]; 1 mm from surface of gel 20a): tree
Proliferation state of vascular endothelial cells ([16]; 3 mm from surface of gel 20a): lump
Proliferation state of vascular endothelial cells ([16]; 4 mm from surface of gel 20a): lump
